Data taken from patent US10537127B2, “Organic compounds” (GIVAUDAN SA, priority 2013, dated 2020).

Assay: Beef bouillon taste evaluation by a panel of experienced tasters
Conditions: 40 ppb dosed to beef bouillon made from bouillon cubes; versus reference bouillon
Procedure: A beef bouillon was prepared using bouillon cubes obtained from a local supermarket.

| SMILES | taste of the bouillon compared with the reference (panel agreement) |
| --- | --- |
| O=C(O)CCCCCCCC(=O)N1CCCC1C(=O)O (stereo not drawn) [Example 2, 1-(8-Carboxyoctanoyl)pyrrolidine-2-carboxylic acid] | more salt impact, and more umami taste than the reference |
| O=C(O)CCCCCCCC(=O)NC(Cc1c[nH]c2ccccc12)C(=O)O (stereo not drawn) [Example 1, 9-((1-Carboxy-2-(1H-indol-3-yl)ethyl)amino)-9-oxononanoic acid] | more umami, more salty and more full than the reference |
| O=C(O)CCCCCCCC(=O)NCCCC(=O)O [Example 3, 9-((3-Carboxypropyl)amino)-9-oxononanoic acid] | more salty and had more “bite” than the reference |
